Key:
Format in all cases: binding
Adrenergic β1 = Adrenergic β1 (Homo sapiens, UniProt P08588); conditions: for % Inhibition: 10 μM
Imidazoline I2, Central = conditions: 10 μM; rat
Adenosine A2A = Adenosine A2A (Homo sapiens, UniProt P29274); conditions: for % Inhibition: 10 μM
Nicotinic Acetylcholine = conditions: 10 μM; human
Rolipram = conditions: 10 μM; rat
Adrenergic α2A = molecular target: T1, Adrenergic α2A (Homo sapiens, UniProt P08913); conditions: for % Inhibition: 10 μM
T1 sequence (P08913 1-465): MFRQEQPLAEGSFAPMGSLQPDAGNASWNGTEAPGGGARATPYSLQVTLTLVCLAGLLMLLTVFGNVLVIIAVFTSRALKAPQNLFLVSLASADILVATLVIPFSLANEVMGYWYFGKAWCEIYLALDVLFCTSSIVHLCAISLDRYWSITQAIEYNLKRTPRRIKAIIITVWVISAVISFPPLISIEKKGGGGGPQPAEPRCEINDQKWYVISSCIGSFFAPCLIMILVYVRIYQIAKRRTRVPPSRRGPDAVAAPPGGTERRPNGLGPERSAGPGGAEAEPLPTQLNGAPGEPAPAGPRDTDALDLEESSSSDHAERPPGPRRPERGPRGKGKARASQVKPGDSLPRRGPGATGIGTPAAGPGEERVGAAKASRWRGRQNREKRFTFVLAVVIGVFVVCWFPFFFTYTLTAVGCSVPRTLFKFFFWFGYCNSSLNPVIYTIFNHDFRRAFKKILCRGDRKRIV

Cannabinoid CB1 = Cannabinoid CB1 (Homo sapiens, UniProt P21554); conditions: for % Inhibition: 10 μM
Dopamine D2s = Dopamine D2s (Homo sapiens, UniProt P14416); conditions: for % Inhibition: 10 μM
Sigma σ1 = Sigma σ1 (Homo sapiens, UniProt Q99720); conditions: for % Inhibition: 10 μM
Adrenergic α1B = molecular target: T2, Adrenergic α1B (Rattus norvegicus, UniProt P15823); conditions: for % Inhibition: 10 μM
T2 sequence (P15823 1-515): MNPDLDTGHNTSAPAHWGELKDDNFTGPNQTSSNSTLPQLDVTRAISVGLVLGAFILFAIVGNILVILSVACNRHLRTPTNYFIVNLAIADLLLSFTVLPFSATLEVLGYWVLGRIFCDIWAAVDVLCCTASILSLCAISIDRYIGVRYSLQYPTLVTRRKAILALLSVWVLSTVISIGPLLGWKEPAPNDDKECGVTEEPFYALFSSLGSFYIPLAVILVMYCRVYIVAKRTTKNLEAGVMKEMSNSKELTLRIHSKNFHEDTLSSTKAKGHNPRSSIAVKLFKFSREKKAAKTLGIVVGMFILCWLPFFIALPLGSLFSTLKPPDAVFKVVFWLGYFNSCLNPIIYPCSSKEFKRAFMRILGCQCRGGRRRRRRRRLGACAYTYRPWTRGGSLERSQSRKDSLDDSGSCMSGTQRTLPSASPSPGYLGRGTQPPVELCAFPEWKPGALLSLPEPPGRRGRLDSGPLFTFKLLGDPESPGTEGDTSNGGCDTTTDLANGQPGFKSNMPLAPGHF

[1] = test system: GABAA, Flunitrazepam, Central; conditions: 10 μM; rat
Muscarinic M3 = Muscarinic M3 (Homo sapiens, UniProt P20309); conditions: for % Inhibition: 10 μM
Prostanoid EP4 = Prostanoid EP4 (Homo sapiens, UniProt P35408); conditions: for % Inhibition: 10 μM
Phorbol Ester = conditions: 10 μM; mouse
Opiate μ(OP3, MOP) = Opiate μ(OP3, MOP) (Homo sapiens, UniProt P35372); conditions: for % Inhibition: 10 μM
[2] = test system: Glutamate, NMDA, Phencyclidine; conditions: 10 μM; rat
Adrenergic α1A = molecular target: T3, Adrenergic α1A (Rattus norvegicus, UniProt P43140); conditions: for % Inhibition: 10 μM
T3 sequence (P43140 1-466): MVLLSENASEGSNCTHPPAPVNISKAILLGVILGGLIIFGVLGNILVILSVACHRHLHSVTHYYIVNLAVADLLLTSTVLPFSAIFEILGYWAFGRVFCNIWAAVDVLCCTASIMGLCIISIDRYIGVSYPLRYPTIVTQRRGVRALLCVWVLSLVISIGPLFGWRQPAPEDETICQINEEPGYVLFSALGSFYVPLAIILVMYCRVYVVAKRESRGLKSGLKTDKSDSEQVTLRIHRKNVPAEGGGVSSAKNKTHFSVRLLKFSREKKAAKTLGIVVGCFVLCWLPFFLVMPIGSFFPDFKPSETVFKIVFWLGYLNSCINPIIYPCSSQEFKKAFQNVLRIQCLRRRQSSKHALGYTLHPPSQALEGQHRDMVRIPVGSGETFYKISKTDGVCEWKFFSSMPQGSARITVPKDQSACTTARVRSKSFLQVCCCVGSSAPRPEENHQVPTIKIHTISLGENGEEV

Potassium Channel (KATP) = Potassium Channel (KATP) (Cricetus cricetus, UniProt Q09427); conditions: hamster; for % Inhibition: 10 μM
Histamine, H1 = Histamine, H1 (Homo sapiens, UniProt P35367); conditions: for % Inhibition: 10 μM
GABAA, Muscimol, Central = conditions: 10 μM; rat
Adrenergic β2 = Adrenergic β2 (Homo sapiens, UniProt P07550); conditions: for % Inhibition: 10 μM
Chain of Adrenergic β2 (P07550 whole entry): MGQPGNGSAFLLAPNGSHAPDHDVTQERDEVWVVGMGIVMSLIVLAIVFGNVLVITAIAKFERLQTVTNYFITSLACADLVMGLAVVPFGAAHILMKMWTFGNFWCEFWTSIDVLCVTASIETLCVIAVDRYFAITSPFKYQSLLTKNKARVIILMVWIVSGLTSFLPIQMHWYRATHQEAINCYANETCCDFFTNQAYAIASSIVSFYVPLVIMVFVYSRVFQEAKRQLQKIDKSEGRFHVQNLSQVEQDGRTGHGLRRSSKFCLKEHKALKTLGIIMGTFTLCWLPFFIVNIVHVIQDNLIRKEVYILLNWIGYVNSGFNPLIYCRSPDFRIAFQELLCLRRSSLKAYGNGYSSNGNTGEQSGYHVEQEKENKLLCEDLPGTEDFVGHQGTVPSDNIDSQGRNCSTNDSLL

Chain of Sigma σ1 (Q99720 whole entry): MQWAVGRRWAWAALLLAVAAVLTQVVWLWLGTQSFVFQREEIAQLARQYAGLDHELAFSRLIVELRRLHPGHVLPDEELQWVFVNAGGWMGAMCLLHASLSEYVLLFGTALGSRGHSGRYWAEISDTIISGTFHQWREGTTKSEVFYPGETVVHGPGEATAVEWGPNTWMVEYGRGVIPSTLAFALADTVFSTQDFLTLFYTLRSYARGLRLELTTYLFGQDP
Chain of Histamine, H1 (P35367 whole entry): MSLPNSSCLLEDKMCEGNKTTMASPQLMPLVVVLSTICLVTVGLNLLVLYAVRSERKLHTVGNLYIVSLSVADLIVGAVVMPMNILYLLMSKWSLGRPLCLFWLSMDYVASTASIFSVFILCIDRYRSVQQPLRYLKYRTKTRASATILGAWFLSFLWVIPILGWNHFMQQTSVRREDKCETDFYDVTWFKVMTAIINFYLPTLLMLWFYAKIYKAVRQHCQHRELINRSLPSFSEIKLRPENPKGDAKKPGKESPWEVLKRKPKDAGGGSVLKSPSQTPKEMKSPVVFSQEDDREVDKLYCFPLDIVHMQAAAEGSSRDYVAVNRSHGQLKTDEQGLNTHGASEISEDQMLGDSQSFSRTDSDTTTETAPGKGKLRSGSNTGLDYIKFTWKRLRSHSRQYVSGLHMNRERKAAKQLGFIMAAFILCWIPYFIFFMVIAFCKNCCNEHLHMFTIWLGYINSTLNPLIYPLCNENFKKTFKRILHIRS
Chain of Dopamine D2s (P14416 1-414 isoform P14416-2): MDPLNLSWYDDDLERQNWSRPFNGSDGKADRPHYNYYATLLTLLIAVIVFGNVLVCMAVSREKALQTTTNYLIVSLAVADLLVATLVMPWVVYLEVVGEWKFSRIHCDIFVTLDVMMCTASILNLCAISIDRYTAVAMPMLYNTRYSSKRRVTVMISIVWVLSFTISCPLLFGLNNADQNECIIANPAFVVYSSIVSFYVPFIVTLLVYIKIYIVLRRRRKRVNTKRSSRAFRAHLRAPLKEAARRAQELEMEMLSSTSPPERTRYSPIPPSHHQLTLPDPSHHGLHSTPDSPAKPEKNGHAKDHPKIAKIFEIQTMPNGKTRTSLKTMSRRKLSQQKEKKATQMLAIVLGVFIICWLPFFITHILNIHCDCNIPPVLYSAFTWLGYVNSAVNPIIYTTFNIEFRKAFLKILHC
Chain of Opiate μ(OP3, MOP) (P35372 whole entry): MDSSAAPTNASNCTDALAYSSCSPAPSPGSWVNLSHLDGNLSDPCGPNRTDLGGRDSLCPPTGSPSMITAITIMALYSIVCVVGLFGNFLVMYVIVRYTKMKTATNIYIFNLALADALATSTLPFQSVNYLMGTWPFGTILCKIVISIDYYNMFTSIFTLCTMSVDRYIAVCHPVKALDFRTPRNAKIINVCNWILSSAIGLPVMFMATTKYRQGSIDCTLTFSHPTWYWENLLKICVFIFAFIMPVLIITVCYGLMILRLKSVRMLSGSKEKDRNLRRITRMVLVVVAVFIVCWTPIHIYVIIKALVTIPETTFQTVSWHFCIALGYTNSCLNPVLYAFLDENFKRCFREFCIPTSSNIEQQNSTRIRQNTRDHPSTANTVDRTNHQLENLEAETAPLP
Chain of Muscarinic M3 (P20309 whole entry): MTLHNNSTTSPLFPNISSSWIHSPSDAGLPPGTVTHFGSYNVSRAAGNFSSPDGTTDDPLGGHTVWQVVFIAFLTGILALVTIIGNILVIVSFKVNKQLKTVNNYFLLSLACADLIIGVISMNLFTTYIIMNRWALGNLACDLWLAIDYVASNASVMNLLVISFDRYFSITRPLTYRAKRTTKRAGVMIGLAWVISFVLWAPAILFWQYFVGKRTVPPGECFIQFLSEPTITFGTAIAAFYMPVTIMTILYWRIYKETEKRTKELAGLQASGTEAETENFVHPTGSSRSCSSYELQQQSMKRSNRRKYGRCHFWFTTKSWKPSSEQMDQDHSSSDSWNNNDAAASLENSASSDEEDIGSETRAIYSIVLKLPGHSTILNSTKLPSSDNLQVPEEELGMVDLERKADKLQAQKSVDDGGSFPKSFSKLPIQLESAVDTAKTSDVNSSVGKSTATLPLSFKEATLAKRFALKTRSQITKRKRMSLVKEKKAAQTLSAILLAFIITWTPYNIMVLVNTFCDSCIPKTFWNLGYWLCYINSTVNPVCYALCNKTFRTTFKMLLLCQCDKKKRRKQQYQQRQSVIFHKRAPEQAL
Chain of Adenosine A2A (P29274 whole entry): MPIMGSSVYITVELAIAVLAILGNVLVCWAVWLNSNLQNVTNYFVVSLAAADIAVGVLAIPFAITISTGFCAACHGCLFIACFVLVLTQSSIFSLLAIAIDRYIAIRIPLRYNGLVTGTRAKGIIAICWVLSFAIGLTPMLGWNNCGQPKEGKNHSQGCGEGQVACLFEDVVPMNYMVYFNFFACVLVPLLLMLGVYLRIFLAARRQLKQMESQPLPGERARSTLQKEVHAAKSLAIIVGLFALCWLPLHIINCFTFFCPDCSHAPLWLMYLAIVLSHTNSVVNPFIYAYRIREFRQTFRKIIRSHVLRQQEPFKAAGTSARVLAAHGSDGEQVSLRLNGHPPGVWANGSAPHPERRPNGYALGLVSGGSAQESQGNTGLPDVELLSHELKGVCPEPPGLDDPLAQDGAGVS
Chain of Potassium Channel (KATP) (Q09427 whole entry): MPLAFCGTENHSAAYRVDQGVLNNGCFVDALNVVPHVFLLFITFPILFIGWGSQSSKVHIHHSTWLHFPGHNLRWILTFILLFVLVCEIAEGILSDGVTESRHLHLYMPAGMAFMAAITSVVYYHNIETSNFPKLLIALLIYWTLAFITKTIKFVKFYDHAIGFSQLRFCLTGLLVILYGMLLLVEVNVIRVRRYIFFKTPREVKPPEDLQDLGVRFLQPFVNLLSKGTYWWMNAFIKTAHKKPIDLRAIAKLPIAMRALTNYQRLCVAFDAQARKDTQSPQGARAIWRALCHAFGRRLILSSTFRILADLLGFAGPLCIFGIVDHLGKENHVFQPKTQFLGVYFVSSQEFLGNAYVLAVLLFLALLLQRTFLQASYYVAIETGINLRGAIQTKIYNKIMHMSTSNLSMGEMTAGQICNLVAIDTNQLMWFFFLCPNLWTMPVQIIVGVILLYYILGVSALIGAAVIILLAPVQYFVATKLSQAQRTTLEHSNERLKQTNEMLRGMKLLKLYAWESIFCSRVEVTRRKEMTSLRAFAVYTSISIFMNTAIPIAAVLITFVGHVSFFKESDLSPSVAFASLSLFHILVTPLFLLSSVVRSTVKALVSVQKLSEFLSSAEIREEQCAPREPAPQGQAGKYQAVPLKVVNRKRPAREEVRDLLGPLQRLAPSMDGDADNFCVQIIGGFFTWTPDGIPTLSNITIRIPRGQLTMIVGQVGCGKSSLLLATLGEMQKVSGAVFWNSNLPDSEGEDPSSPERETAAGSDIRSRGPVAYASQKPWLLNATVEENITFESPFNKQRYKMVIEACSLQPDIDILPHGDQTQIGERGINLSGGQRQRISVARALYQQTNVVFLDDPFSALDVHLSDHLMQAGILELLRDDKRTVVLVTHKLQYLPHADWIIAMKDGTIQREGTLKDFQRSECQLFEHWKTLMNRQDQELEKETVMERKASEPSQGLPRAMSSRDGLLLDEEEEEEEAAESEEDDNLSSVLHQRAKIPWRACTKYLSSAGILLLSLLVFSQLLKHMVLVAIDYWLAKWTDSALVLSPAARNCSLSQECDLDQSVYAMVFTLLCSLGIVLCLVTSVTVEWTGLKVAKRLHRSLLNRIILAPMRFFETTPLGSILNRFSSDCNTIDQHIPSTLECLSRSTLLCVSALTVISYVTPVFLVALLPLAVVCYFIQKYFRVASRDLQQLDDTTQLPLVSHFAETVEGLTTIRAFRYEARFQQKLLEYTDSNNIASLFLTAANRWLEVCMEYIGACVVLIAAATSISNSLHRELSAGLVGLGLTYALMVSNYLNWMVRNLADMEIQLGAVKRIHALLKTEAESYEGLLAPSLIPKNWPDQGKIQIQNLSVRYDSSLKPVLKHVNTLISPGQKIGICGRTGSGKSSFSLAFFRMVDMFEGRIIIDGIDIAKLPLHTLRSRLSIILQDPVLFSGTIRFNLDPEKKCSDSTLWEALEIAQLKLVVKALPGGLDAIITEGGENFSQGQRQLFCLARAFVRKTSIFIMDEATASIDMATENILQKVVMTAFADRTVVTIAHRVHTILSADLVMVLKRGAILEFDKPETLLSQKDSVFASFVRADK
Chain of Adrenergic β1 (P08588 whole entry): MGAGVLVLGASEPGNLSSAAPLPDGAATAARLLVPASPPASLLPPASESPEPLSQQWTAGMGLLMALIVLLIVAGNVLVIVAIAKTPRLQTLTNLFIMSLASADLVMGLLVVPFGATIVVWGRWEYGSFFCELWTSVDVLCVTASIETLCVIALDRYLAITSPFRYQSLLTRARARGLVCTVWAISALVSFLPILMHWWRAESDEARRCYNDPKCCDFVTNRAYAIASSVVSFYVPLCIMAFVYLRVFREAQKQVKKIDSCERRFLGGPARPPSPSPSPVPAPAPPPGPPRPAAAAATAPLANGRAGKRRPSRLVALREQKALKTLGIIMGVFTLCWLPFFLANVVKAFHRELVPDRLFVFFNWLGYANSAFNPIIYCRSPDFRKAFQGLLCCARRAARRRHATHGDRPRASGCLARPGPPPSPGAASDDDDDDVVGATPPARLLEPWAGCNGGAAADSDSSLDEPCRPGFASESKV

Row | Structure (SMILES) | % Inhibition (Adrenergic β1) | % Inhibition (Imidazoline I2, Central) | % Inhibition (Adenosine A2A) | % Inhibition (Nicotinic Acetylcholine) | % Inhibition (Rolipram) | % Inhibition (Adrenergic α2A) | % Inhibition (Cannabinoid CB1) | % Inhibition (Dopamine D2s) | % Inhibition (Sigma σ1) | % Inhibition (Adrenergic α1B) | % Inhibition [1] | % Inhibition (Muscarinic M3) | % Inhibition (Prostanoid EP4) | % Inhibition (Phorbol Ester) | % Inhibition (Opiate μ(OP3, MOP)) | % Inhibition [2] | % Inhibition (Adrenergic α1A) | % Inhibition (Potassium Channel (KATP)) | % Inhibition (Histamine, H1) | % Inhibition (GABAA, Muscimol, Central) | also measured
1 | O=C(Nc1nnc(-c2ccc(F)cc2)o1)N1CCc2ccccc2C1 [MBX-4132] | −10% | 33% | 43% | −8% | 2% | 54% | 14% | 25% | −4% | 21% | 13% | 16% | 18% | 4% | 74% | −3% | 24% | 10% | 17% | 1% | % Inhibition (Adrenergic β2): 36%
2 | O=C(Nc1nnc(-c2ccc(F)cc2)o1)c1ccc(Oc2ccccc2)nc1 [MBX-4237] | – | 14% | – | 8% | 1% | – | – | – | – | – | 25% | – | – | 2% | – | 9% | – | – | – | −6% | inhibition at 10 µM (Adrenergic β1): -9%; inhibition at 10 µM (Adenosine A2A): 6%; inhibition at 10 µM (Adrenergic α2A): -8%; inhibition at 10 µM (Cannabinoid CB1): 7%; inhibition at 10 µM (Dopamine D2s): -3%; inhibition at 10 µM (Sigma σ1): 32%; inhibition at 10 µM (Adrenergic α1B): -2%; inhibition at 10 µM (Muscarinic M3): 11%; inhibition at 10 µM (Prostanoid EP4): -22%; inhibition at 10 µM (Opiate μ(OP3, MOP)): 12%; inhibition at 10 µM (Adrenergic α1A): 6%; inhibition at 10 µM (Potassium Channel (KATP)): 9%; inhibition at 10 µM (Histamine, H1): 6%; inhibition at 10 µM (Adrenergic β2): 15%
3 | O=C(Nc1nnc(-c2ccc(F)cc2)o1)c1ccc(OC2CCCCC2)cc1 [MBX-4292] | 3% | 10% | 11% | 1% | −8% | 3% | 11% | 1% | 10% | 3% | −1% | 0% | 28% | 2% | 4% | 0% | 9% | 8% | −8% | −4% | % Inhibition (Adrenergic β2): 6%
4 | O=C(Nc1nnc(-c2ccc(F)cc2)o1)N1CC=C(C(F)(F)F)CC1 [MBX-4347] | 3% | −5% | 3% | −4% | −6% | 9% | 0% | −2% | −2% | 7% | 22% | 2% | −4% | 7% | −14% | 5% | −21% | 2% | 22% | 4% | % Inhibition (Adrenergic β2): 8%
